Laboratory results reported in US12251469B2, “Sterically stabilized carrier compositions for treating a mammal” (VGSK Technologies, Inc., priority 2015, dated 2025).

System: sensitized mice
Experiment: Preliminary dose-response study of BUD in sensitized mice, histopathologic examination
Type: in vivo
Description: The dose of BUD chosen was based on preliminary dose-response studies with 5 to 50 μg of BUD as follows.
Each day, 5, 10, 15, 20 or 50 μg of BUD was administered to groups of sensitized mice, and the dose-dependent effects on the inflammatory parameters were evaluated.
The tissues were removed and fixed with 10% phosphate buffered formalin. Tissue samples were taken from the skin, spleen, liver, gastrointestinal tract, and kidney. The tissues were embedded in paraffin, sectioned at 5 μm thickness and stained with hematoxylin and eosin and analyzed using light microscopy.
Coded slides were examined by a pathologist in a blinded fashion for evidence of inflammatory changes, including epithelial hyperplasia and perivascular edema and accumulation of eosinophils, neutrophils, and mononuclear inflammatory cells. Each of the parameters evaluated was given an individual number score. Objective measurements of histopathological changes include aggregation of eosinophils around blood vessels (perivascular), accumulation of other inflammatory cells, presence of desquamation and hyperplasia of the epithelium, and infiltration of inflammatory cells.

## CCCC1O[C@@H]2C[C@H]3[C@@H]4CCC5=CC(=O)C=C[C@]5(C)[C@H]4[C@@H](O)C[C@]3(C)[C@]2(C(=O)CO)O1 (stereo partly shown) [Daily BUD, budesonide]
  granulomas or abnormalities in any of the tissues evaluated: no granulomas or abnormalities
